Measured values as given in ChEMBL document CHEMBL1201862, “PubChem BioAssay data set” (2004).
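Growth conditions: 96-well plates. Treatment: test compound, 48 hours, 5 concentrations. Analysis: linear interpolation between bracketing concentrations; unreached endpoints set to highest concentration. GI50 = concentration required for 50% inhibition of growth.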 Calls of active or inactive are those of the source. No stated cut-off is given here; in the data, active = GI50 up to about 1.1 µM and inactive = higher.

How the values were obtained:
Test in all cases: growth of human tumour cells (NCI), 48 h
786-0 = tested on: 786-0
A549 = tested on: A549
ACHN = tested on: ACHN
BT-549 = tested on: BT-549
CAKI-1 = tested on: CAKI-1
COLO 205 = tested on: COLO 205
DU-145 = tested on: DU-145
EKVX = tested on: EKVX
HCC 2998 = tested on: HCC 2998
HCT-116 = tested on: HCT-116
HCT-15 = tested on: HCT-15
HOP-62 = tested on: HOP-62
HT-29 = tested on: HT-29
Hs-578T = tested on: Hs-578T
IGROV-1 = tested on: IGROV-1
K562 = tested on: K562
KM12 = tested on: KM12
LOX IMVI = tested on: LOX IMVI
M14 = tested on: M14
MCF7 = tested on: MCF7
MDA-MB-231 = tested on: MDA-MB-231
MDA-MB-435 = tested on: MDA-MB-435
MDA-N = tested on: MDA-N
MOLT-4 = tested on: MOLT-4
Malme-3M = tested on: Malme-3M
NCI-H226 = tested on: NCI-H226
NCI-H23 = tested on: NCI-H23
NCI-H460 = tested on: NCI-H460
NCI/ADR-RES = tested on: NCI/ADR-RES
OVCAR-3 = tested on: OVCAR-3
OVCAR-4 = tested on: OVCAR-4
OVCAR-5 = tested on: OVCAR-5
OVCAR-8 = tested on: OVCAR-8
PC-3 = tested on: PC-3
RPMI-8226 = tested on: RPMI-8226
SF-268 = tested on: SF-268
SF-295 = tested on: SF-295
SF-539 = tested on: SF-539
SK-MEL-28 = tested on: SK-MEL-28
SK-MEL-2 = tested on: SK-MEL-2
SK-MEL-5 = tested on: SK-MEL-5
SK-OV-3 = tested on: SK-OV-3
SN12C = tested on: SN12C
SNB-19 = tested on: SNB-19
SNB-75 = tested on: SNB-75
SR = tested on: SR
SW-620 = tested on: SW-620
T47D = tested on: T47D
TK-10 = tested on: TK-10
U-251 = tested on: U-251
UACC-257 = tested on: UACC-257
UACC-62 = tested on: UACC-62
UO-31 = tested on: UO-31
CCRF-CEM = tested on: CCRF-CEM
HL-60 = tested on: HL-60
HOP-92 = tested on: HOP-92
NCI-H522 = tested on: NCI-H522
RXF 393 = tested on: RXF 393

C[n+]1c2ccccc2c(C(=O)Nc2ccc(S(=O)(=O)Nc3ccnn3-c3ccccc3)cc2)c2ccccc21
GI50 (786-0): > 100 µM (inactive)
GI50 (A549): > 100 µM (inactive)
GI50 (ACHN): > 100 µM (inactive)
GI50 (BT-549): > 100 µM (inactive)
GI50 (CAKI-1): > 100 µM (inactive)
GI50 (COLO 205): > 100 µM (inactive)
GI50 (DU-145): > 100 µM (inactive)
GI50 (EKVX): > 100 µM (inactive)
GI50 (HCC 2998): > 100 µM (inactive)
GI50 (HCT-116): > 100 µM (inactive)
GI50 (HCT-15): > 100 µM
GI50 (HOP-62): > 100 µM (inactive)
GI50 (HT-29): > 100 µM (inactive)
GI50 (Hs-578T): > 100 µM (inactive)
GI50 (IGROV-1): > 100 µM (inactive)
GI50 (K562): > 100 µM (inactive)
GI50 (KM12): > 100 µM (inactive)
GI50 (LOX IMVI): > 100 µM (inactive)
GI50 (M14): > 100 µM (inactive)
GI50 (MCF7): > 100 µM (inactive)
GI50 (MDA-MB-231): > 100 µM (inactive)
GI50 (MDA-MB-435): > 100 µM (inactive)
GI50 (MDA-N): > 100 µM (inactive)
GI50 (MOLT-4): > 100 µM (inactive)
GI50 (Malme-3M): > 100 µM (inactive)
GI50 (NCI-H226): > 100 µM (inactive)
GI50 (NCI-H23): > 100 µM (inactive)
GI50 (NCI-H460): > 100 µM (inactive)
GI50 (NCI/ADR-RES): 20.7 µM (inactive)
GI50 (OVCAR-3): > 100 µM (inactive)
GI50 (OVCAR-4): > 100 µM (inactive)
GI50 (OVCAR-5): > 100 µM (inactive)
GI50 (OVCAR-8): > 100 µM (inactive)
GI50 (PC-3): > 100 µM (inactive)
GI50 (RPMI-8226): > 100 µM (inactive)
GI50 (SF-268): > 100 µM (inactive)
GI50 (SF-295): > 100 µM (inactive)
GI50 (SF-539): > 100 µM (inactive)
GI50 (SK-MEL-28): > 100 µM (inactive)
GI50 (SK-MEL-2): > 100 µM (inactive)
GI50 (SK-MEL-5): 69.2 µM (inactive)
GI50 (SK-OV-3): > 100 µM (inactive)
GI50 (SN12C): > 100 µM (inactive)
GI50 (SNB-19): > 100 µM (inactive)
GI50 (SNB-75): > 100 µM (inactive)
GI50 (SR): > 100 µM (inactive)
GI50 (SW-620): > 100 µM (inactive)
GI50 (T47D): > 100 µM (inactive)
GI50 (TK-10): > 100 µM (inactive)
GI50 (U-251): > 100 µM (inactive)
GI50 (UACC-257): > 100 µM (inactive)
GI50 (UACC-62): > 100 µM (inactive)
GI50 (UO-31): > 100 µM (inactive)

Cc1ccc(-c2nc3cc(Cl)ccc3[nH]2)cc1
GI50 (786-0): > 100 µM (inactive)
GI50 (A549): 83.4 µM (inactive)
GI50 (ACHN): 97.5 µM (inactive)
GI50 (BT-549): > 100 µM (inactive)
GI50 (CAKI-1): > 100 µM (inactive)
GI50 (CCRF-CEM): > 100 µM (inactive)
GI50 (COLO 205): 71.6 µM (inactive)
GI50 (DU-145): > 100 µM (inactive)
GI50 (EKVX): > 100 µM (inactive)
GI50 (HCC 2998): 53.2 µM (inactive)
GI50 (HCT-116): > 100 µM (inactive)
GI50 (HCT-15): 80.5 µM
GI50 (HL-60): 27 µM (inactive)
GI50 (HOP-62): > 100 µM (inactive)
GI50 (HOP-92): > 100 µM (inactive)
GI50 (HT-29): 49 µM (inactive)
GI50 (Hs-578T): > 100 µM (inactive)
GI50 (IGROV-1): > 100 µM (inactive)
GI50 (K562): 45.5 µM (inactive)
GI50 (KM12): 46.8 µM (inactive)
GI50 (LOX IMVI): > 100 µM (inactive)
GI50 (M14): > 100 µM (inactive)
GI50 (MCF7): > 100 µM (inactive)
GI50 (MDA-MB-231): > 100 µM (inactive)
GI50 (MDA-MB-435): 54.1 µM (inactive)
GI50 (MDA-N): 42.5 µM (inactive)
GI50 (MOLT-4): 32.4 µM (inactive)
GI50 (Malme-3M): > 100 µM (inactive)
GI50 (NCI-H226): > 100 µM (inactive)
GI50 (NCI-H23): > 100 µM (inactive)
GI50 (NCI-H460): > 100 µM (inactive)
GI50 (NCI-H522): 91.2 µM (inactive)
GI50 (NCI/ADR-RES): 71.3 µM (inactive)
GI50 (OVCAR-3): > 100 µM (inactive)
GI50 (OVCAR-4): > 100 µM (inactive)
GI50 (OVCAR-8): > 100 µM (inactive)
GI50 (PC-3): 79.1 µM (inactive)
GI50 (RPMI-8226): 46.8 µM (inactive)
GI50 (RXF 393): > 100 µM (inactive)
GI50 (SF-268): > 100 µM (inactive)
GI50 (SF-295): > 100 µM (inactive)
GI50 (SF-539): > 100 µM (inactive)
GI50 (SK-MEL-28): > 100 µM (inactive)
GI50 (SK-MEL-2): > 100 µM (inactive)
GI50 (SK-MEL-5): > 100 µM (inactive)
GI50 (SK-OV-3): > 100 µM (inactive)
GI50 (SN12C): > 100 µM (inactive)
GI50 (SNB-19): > 100 µM (inactive)
GI50 (SNB-75): > 100 µM (inactive)
GI50 (SR): 3.38 µM (inactive)
GI50 (SW-620): > 100 µM (inactive)
GI50 (T47D): > 100 µM (inactive)
GI50 (TK-10): > 100 µM (inactive)
GI50 (U-251): > 100 µM (inactive)
GI50 (UACC-257): > 100 µM (inactive)
GI50 (UACC-62): > 100 µM (inactive)
GI50 (UO-31): > 100 µM (inactive)
